From BigSolDB 2.1

Cc1c(N)c(=O)n(-c2ccccc2)n1C
solubility (mole fraction)
Details | in acetone | in ethanol | in ethyl acetate | in isopropanol | in methanol | in n-butanol | in n-propanol | in sec-butanol | in water
299.05 K | 0.37 | 0.22 | 0.08 | 0.19 | 0.23 | 0.15 | 0.21 | 0.14 | 0.13
303.15 K | 0.4 | 0.25 | 0.09 | 0.22 | 0.25 | 0.17 | 0.24 | 0.16 | 0.15
307.25 K | 0.43 | 0.28 | 0.11 | 0.25 | 0.28 | 0.19 | 0.28 | 0.18 | 0.17
311.05 K | 0.44 | 0.31 | 0.13 | 0.29 | 0.31 | 0.21 | 0.31 | 0.2 | 0.19
315.15 K | 0.47 | 0.35 | 0.15 | 0.32 | 0.34 | 0.24 | 0.35 | 0.23 | 0.22
321.05 K | 0.52 | 0.41 | 0.2 | 0.38 | 0.39 | 0.29 | 0.41 | 0.27 | 0.27
327.15 K | 0.55 | 0.48 | 0.25 | 0.45 | 0.44 | 0.34 | 0.46 | 0.31 | 0.33
338.35 K | 0.62 | 0.6 | 0.36 | 0.57 | 0.57 | 0.46 | 0.59 | 0.41 | 0.44
